Source: US20220227720A1, “DHODH INHIBITORS AND THEIR USE AS ANTIVIRAL AGENTS” (priority 2019, published 2022)
Converted amounts (≈) assume the structure as drawn. Read-outs that look alike come from different tables or passages of the source.

Tests used:
[1] = test system: TOSV; experiment: microbe, parasite or virus in culture; type: cell-based, Toscana virus; settings: Toscana virus, Vero C1008, read-out: IC50 (TOSV)
[2] = test system: HAZV; experiment: microbe, parasite or virus in culture; type: cell-based; settings: Hazara virus, Vero C1008, read-out: IC50 HAZV
[3] = test system: RVFV; experiment: microbe, parasite or virus in culture; type: cell-based; settings: Rift Valley fever virus, Vero C1008, read-out: IC50 RVFV
[4] = test system: YFV; experiment: microbe, parasite or virus in culture; type: cell-based; settings: Yellow fever virus, Vero C1008, read-out: IC50 YFV
[5] = test system: DENV; experiment: Virus yield reduction assay, DENV in Vero E6 cells; type: cell-based; settings: Dengue virus, Vero C1008; Simian Vero E6 cells; FLAVI virus family
[6] = test system: TBEV; experiment: microbe, parasite or virus in culture; type: cell-based; settings: Tick-borne encephalitis virus, Vero C1008, read-out: IC50 TBEV
[7] = test system: ZIKV; experiment: Virus yield reduction assay, ZIKV in Vero E6 cells; type: cell-based; settings: Zika virus, Vero C1008; Simian Vero E6 cells; FLAVI virus family
[8] = test system: VEEV; experiment: microbe, parasite or virus in culture; type: cell-based; settings: Venezuelan equine encephalitis virus, Vero C1008, read-out: IC50 VEEV
[9] = test system: RVFV; experiment: microbe, parasite or virus in culture; type: cell-based; settings: Rift Valley fever virus, BHK-21, in Mesocricetus auratus, read-out: IC50 RVFV
[10] = test system: YFV; experiment: microbe, parasite or virus in culture; type: cell-based; settings: Yellow fever virus, BHK-21, in Mesocricetus auratus, read-out: IC50 YFV
[11] = test system: RVFV; experiment: microbe, parasite or virus in culture; type: cell-based; settings: Rift Valley fever virus, SW13, read-out: IC50 RVFV
[12] = test system: TBEV; experiment: microbe, parasite or virus in culture; type: cell-based; settings: Tick-borne encephalitis virus, SW13, read-out: IC50 TBEV
[13] = test system: VEEV; experiment: microbe, parasite or virus in culture; type: cell-based; settings: Venezuelan equine encephalitis virus, SW13, read-out: IC50 VEEV
[14] = test system: RVFV; experiment: microbe, parasite or virus in culture; type: cell-based; settings: Rift Valley fever virus, HEK293, read-out: IC50 RVFV
[15] = test system: TBEV; experiment: microbe, parasite or virus in culture; type: cell-based; settings: Tick-borne encephalitis virus, HEK293, read-out: IC50 TBEV
[16] = test system: VEEV; experiment: microbe, parasite or virus in culture; type: cell-based; settings: Venezuelan equine encephalitis virus, HEK293, read-out: IC50 VEEV
[17] = Plasma stability; settings: 1 μm, 37° C., mouse plasma diluted with 1 volume of PBS pH 7.4
[18] = Solubility in PBS pH 7.4; settings: PBS pH 7.4, 20 °C, pH 7.4, aqueous buffer
[19] = Hepatic microsome stability; settings: 1 μm, 37° C., 0.5 mg/mL microsomes of mouse liver; cofactor: NADPH
[20] = Cytotoxicity assay, SW13 cells; settings: human
[21] = Cytotoxicity assay, BHK-21 cells; settings: hamster, BHK-21 cells, CC50, Hamster BHK-21 cells; value repeated under each virus
[22] = test system: BHK-21; experiment: Cytotoxicity assay, BHK-21 cells; settings: Hamster BHK-21 cells; value repeated under each virus
[23] = Cytotoxicity assay (CellTiter-Blue), Vero E6 cells; settings: monkey (simian), Vero E6 cells, CC50, Simian Vero E6 cells; value repeated under each virus

**Q.** With CCCCCc1ccc(C#Cc2ccc(NC(=O)C(C)C)c(C(=O)O)c2)cc1 [Example 9, 2-Isobutyramido-5-((4-pentylphenyl)ethynyl)benzoic acid] as the molecule, how does the IC50 [1] read?
**A.** 10 nM

**Q.** What about the IC50 [2] of the same molecule?
**A.** 12 nM

**Q.** What about the IC50 [3] of the same molecule?
**A.** 10 nM

**Q.** What about the IC50 [4] of the same molecule?
**A.** 16 nM

**Q.** What about the IC50 [5] of the same molecule?
**A.** 23 nM

**Q.** What about the IC50 [6] of the same molecule?
**A.** 11.7 nM

**Q.** What about the IC50 [7] of the same molecule?
**A.** 23 nM

**Q.** And the IC50 [8]?
**A.** 10.7 nM

**Q.** What about the IC50 [9] of the same molecule?
**A.** 43 nM

**Q.** And the IC50 [10]?
**A.** 55 nM

**Q.** What about the IC50 [11] of the same molecule?
**A.** 11 nM

**Q.** And the IC50 [12]?
**A.** 14 nM

**Q.** And the IC50 [13]?
**A.** 14 nM

**Q.** What about the IC50 [14] of the same molecule?
**A.** < 1.6 nM

**Q.** What about the IC50 [15] of the same molecule?
**A.** 4.4 nM

**Q.** What about the IC50 [16] of the same molecule?
**A.** 1.5 nM

**Q.** And the “Plasma stability [% remaining at 2 h]” value [17]?
**A.** 98 ± 3 % remaining at 2 h

**Q.** What about the solubility [18] of the same molecule?
**A.** 13 ± 6 µM (≈ 4.91 µg/mL)

**Q.** What about the “Hepatic microsome stability [% remaining at 1 h]” value [19] of the same molecule?
**A.** 45 ± 8 % remaining at 1 h

**Q.** And the CC50 [20]?
**A.** 17 µM

**Q.** What about the CC50 [21] of the same molecule?
**A.** 50 µM

**Q.** What about the CC50 [22] of the same molecule?
**A.** 55 µM

**Q.** And the CC50 at 4 days [23]?
**A.** 4 µM
